Measured values reported in ChEMBL document CHEMBL1150930, “Metabolism of rosmarinic acid in rats” (J Nat Prod, 1998).

Experiments:
Type in all cases: ADME, organism-based, Urine
Parameters in all cases: dose 200 mg/kg, route oral
Conditions in all cases: in vivo
Rattus norvegicus [1] = assay: Metabolic stability in Sprague-Dawley rat assessed as urinary excretion of trans-caffeic acid 4-O-sulfate level at 200 mg/kg, po after 0 to 4 hrs by HPLC
Rattus norvegicus [2] = assay: Metabolic stability in Sprague-Dawley rat assessed as urinary excretion of trans-caffeic acid 4-O-sulfate level at 200 mg/kg, po after 0 to 8 hrs by HPLC
Rattus norvegicus [3] = assay: Metabolic stability in Sprague-Dawley rat assessed as urinary excretion of trans-caffeic acid 4-O-sulfate level at 200 mg/kg, po after 0 to 12 hrs by HPLC
Rattus norvegicus [4] = assay: Metabolic stability in Sprague-Dawley rat assessed as urinary excretion of trans-caffeic acid 4-O-sulfate level at 200 mg/kg, po after 0 to 24 hrs by HPLC
Rattus norvegicus [5] = assay: Metabolic stability in Sprague-Dawley rat assessed as urinary excretion of trans-caffeic acid 4-O-sulfate level at 200 mg/kg, po after 0 to 36 hrs by HPLC
Rattus norvegicus [6] = assay: Metabolic stability in Sprague-Dawley rat assessed as urinary excretion of trans-caffeic acid 4-O-sulfate level at 200 mg/kg, po after 0 to 48 hrs by HPLC
Rattus norvegicus [7] = assay: Metabolic stability in Sprague-Dawley rat assessed as urinary excretion of trans-caffeic acid 4-O-sulfate level at 200 mg/kg, po after 0 to 72 hrs by HPLC
Rattus norvegicus [8] = assay: Metabolic stability in Sprague-Dawley rat assessed as urinary excretion of total metabolites at 200 mg/kg, po after 0 to 24 hrs by HPLC
Rattus norvegicus [9] = assay: Metabolic stability in Sprague-Dawley rat assessed as urinary excretion of total metabolites at 200 mg/kg, po after 0 to 12 hrs by HPLC
Rattus norvegicus [10] = assay: Metabolic stability in Sprague-Dawley rat assessed as urinary excretion of trans-m-coumaric acid 3-O-sulfate level at 200 mg/kg, po after 0 to 12 hrs by HPLC
Rattus norvegicus [11] = assay: Metabolic stability in Sprague-Dawley rat assessed as urinary excretion of trans-m-coumaric acid 3-O-sulfate level at 200 mg/kg, po after 0 to 24 hrs by HPLC
Rattus norvegicus [12] = assay: Metabolic stability in Sprague-Dawley rat assessed as urinary excretion of trans-m-coumaric acid 3-O-sulfate level at 200 mg/kg, po after 0 to 36 hrs by HPLC
Rattus norvegicus [13] = assay: Metabolic stability in Sprague-Dawley rat assessed as urinary excretion of trans-m-coumaric acid 3-O-sulfate level at 200 mg/kg, po after 0 to 48 hrs by HPLC
Rattus norvegicus [14] = assay: Metabolic stability in Sprague-Dawley rat assessed as urinary excretion of trans-m-coumaric acid 3-O-sulfate level at 200 mg/kg, po after 0 to 72 hrs by HPLC
Rattus norvegicus [15] = assay: Metabolic stability in Sprague-Dawley rat assessed as urinary excretion of trans-ferulic acid 4-O-sulfate level at 200 mg/kg, po after 0 to 4 hrs by HPLC
Rattus norvegicus [16] = assay: Metabolic stability in Sprague-Dawley rat assessed as urinary excretion of trans-ferulic acid 4-O-sulfate level at 200 mg/kg, po after 0 to 8 hrs by HPLC
Rattus norvegicus [17] = assay: Metabolic stability in Sprague-Dawley rat assessed as urinary excretion of trans-ferulic acid 4-O-sulfate level at 200 mg/kg, po after 0 to 12 hrs by HPLC
Rattus norvegicus [18] = assay: Metabolic stability in Sprague-Dawley rat assessed as urinary excretion of trans-ferulic acid 4-O-sulfate level at 200 mg/kg, po after 0 to 24 hrs by HPLC
Rattus norvegicus [19] = assay: Metabolic stability in Sprague-Dawley rat assessed as urinary excretion of trans-ferulic acid 4-O-sulfate level at 200 mg/kg, po after 0 to 36 hrs by HPLC
Rattus norvegicus [20] = assay: Metabolic stability in Sprague-Dawley rat assessed as urinary excretion of trans-ferulic acid 4-O-sulfate level at 200 mg/kg, po after 0 to 48 hrs by HPLC
Rattus norvegicus [21] = assay: Metabolic stability in Sprague-Dawley rat assessed as urinary excretion of trans-ferulic acid 4-O-sulfate level at 200 mg/kg, po after 0 to 72 hrs by HPLC
Rattus norvegicus [22] = assay: Metabolic stability in Sprague-Dawley rat assessed as urinary excretion of trans-caffeic acid level at 200 mg/kg, po after 0 to 4 hrs by HPLC
Rattus norvegicus [23] = assay: Metabolic stability in Sprague-Dawley rat assessed as urinary excretion of trans-caffeic acid level at 200 mg/kg, po after 0 to 8 hrs by HPLC
Rattus norvegicus [24] = assay: Metabolic stability in Sprague-Dawley rat assessed as urinary excretion of trans-caffeic acid level at 200 mg/kg, po after 0 to 12 hrs by HPLC
Rattus norvegicus [25] = assay: Metabolic stability in Sprague-Dawley rat assessed as urinary excretion of trans-caffeic acid level at 200 mg/kg, po after 0 to 24 hrs by HPLC
Rattus norvegicus [26] = assay: Metabolic stability in Sprague-Dawley rat assessed as urinary excretion of trans-caffeic acid level at 200 mg/kg, po after 0 to 36 hrs by HPLC

O=C(/C=C/c1ccc(O)c(O)c1)O[C@H](Cc1ccc(O)c(O)c1)C(=O)O [ROSMARINIC ACID]
Activity (Rattus norvegicus [1]): 0.038% | Activity (Rattus norvegicus [2]): 0.124% | Activity (Rattus norvegicus [3]): 0.139% | Activity (Rattus norvegicus [4]): 0.149% | Activity (Rattus norvegicus [5]): 0.154% | Activity (Rattus norvegicus [6]): 0.154% | Activity (Rattus norvegicus [7]): 0.154% | Activity (Rattus norvegicus [8]): 23.143% | Activity (Rattus norvegicus [9]): 6.241% | Activity (Rattus norvegicus [10]): 0.174% | Activity (Rattus norvegicus [11]): 7.456% | Activity (Rattus norvegicus [12]): 11.778% | Activity (Rattus norvegicus [13]): 12.137% | Activity (Rattus norvegicus [14]): 12.137% | Activity (Rattus norvegicus [15]): 0.081% | Activity (Rattus norvegicus [16]): 0.284% | Activity (Rattus norvegicus [17]): 0.462% | Activity (Rattus norvegicus [18]): 0.538% | Activity (Rattus norvegicus [19]): 0.559% | Activity (Rattus norvegicus [20]): 0.581% | Activity (Rattus norvegicus [21]): 0.581% | Activity (Rattus norvegicus [22]): 0.01% | Activity (Rattus norvegicus [23]): 0.027% | Activity (Rattus norvegicus [24]): 0.037% | Activity (Rattus norvegicus [25]): 0.063% | Activity (Rattus norvegicus [26]): 0.086%
